Experimental data as given in patent US7750003B2, “Compounds-943” (AstraZeneca AB, priority 2006, dated 2010).

Molecular target: recombinant mTOR (FLAG-tagged, residues 1362-2549) (Homo sapiens, UniProt P42345)
Test: In vitro mTOR kinase assay (Test (a), AlphaScreen)
Assay type: biochemical
Details: ATP 20 μM, read-out: Test (a): IC50 versus mTOR kinase
Protocol: (a) In Vitro mTOR Kinase Assay
Following expression in the mammalian HEK293 cell line, expressed protein was purified using the FLAG epitope tag using standard purification techniques.
Aliquots (2 μl) of each compound dilution were placed into a well of a Greiner 384-well low volume (LV) white polystyrene plate (Greiner Bio-one).
These assay solutions were incubated for 2 hours at room temperature.
The resultant signals arising from laser light excitation at 680 nm were read using a Packard Envision instrument.
The phosphorylated biotinylated peptide that is associated with AlphaScreen Streptavidin donor beads forms a complex with the p70 S6 Kinase (T389) 1A5 Monoclonal Antibody that is associated with Alphascreen Protein A acceptor beads. Upon laser light excitation at 680 nm, the donor bead: acceptor bead complex produces a signal that can be measured. Accordingly, the presence of mTOR kinase activity results in an assay signal. In the presence of an mTOR kinase inhibitor, signal strength is reduced.
mTOR enzyme inhibition for a given test compound was expressed as an IC50 value.

Sequence of recombinant mTOR (FLAG-tagged, residues 1362-2549) (P42345 1362-2549): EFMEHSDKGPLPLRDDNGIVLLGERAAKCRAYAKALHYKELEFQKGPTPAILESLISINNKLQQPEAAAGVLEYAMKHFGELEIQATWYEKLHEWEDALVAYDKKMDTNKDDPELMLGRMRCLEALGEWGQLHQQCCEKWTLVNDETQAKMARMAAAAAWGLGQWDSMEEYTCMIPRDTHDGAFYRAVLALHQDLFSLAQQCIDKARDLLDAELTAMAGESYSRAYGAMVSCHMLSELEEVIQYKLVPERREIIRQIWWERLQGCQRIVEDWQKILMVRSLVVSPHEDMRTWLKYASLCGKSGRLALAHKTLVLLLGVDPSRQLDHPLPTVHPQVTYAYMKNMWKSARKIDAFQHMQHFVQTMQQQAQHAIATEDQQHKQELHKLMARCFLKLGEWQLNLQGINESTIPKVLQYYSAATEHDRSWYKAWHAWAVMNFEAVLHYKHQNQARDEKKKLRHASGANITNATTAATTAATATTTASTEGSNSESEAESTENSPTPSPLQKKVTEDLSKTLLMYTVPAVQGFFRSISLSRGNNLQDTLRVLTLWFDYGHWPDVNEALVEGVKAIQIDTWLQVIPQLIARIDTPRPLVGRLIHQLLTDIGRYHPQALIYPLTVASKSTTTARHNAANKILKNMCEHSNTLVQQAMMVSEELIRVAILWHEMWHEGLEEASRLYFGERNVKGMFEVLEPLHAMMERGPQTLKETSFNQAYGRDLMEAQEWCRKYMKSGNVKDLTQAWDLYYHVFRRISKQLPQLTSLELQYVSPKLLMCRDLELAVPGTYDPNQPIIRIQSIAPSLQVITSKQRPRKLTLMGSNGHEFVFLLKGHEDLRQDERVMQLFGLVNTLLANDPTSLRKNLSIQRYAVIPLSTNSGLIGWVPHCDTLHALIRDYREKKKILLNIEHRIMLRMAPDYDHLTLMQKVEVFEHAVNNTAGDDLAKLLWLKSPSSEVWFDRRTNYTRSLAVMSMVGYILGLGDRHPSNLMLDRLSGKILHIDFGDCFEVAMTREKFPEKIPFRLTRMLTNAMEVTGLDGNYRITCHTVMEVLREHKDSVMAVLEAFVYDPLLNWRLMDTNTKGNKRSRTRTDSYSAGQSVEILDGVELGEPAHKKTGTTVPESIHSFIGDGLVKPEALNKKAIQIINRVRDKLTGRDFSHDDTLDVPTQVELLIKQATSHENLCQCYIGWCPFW

Row | IC50 | SMILES
1 | 66 nM | CNC(=O)Nc1ccc(-c2nc(CS(=O)(=O)c3ccccc3OC)cc(N3CCOC[C@@H]3C)n2)cc1 [Example 33b, 1-[4-[4-[(2-methoxyphenyl)sulfonylmethyl]-6-[(3S)-3-methylmorpholin-4-yl]pyrimidin-2-yl]phenyl]-3-methyl-urea]
2 | 31 nM | CS(=O)(=O)Cc1cc(N2CCOCC2)nc(-c2ccc(NC(=O)NC3CC3)cc2)n1 [Example 8, 3-Cyclopropyl-1-[4-[4-(methylsulfonylmethyl)-6-morpholin-4-yl-pyrimidin-2-yl]phenyl]urea]
3 | 200 nM | C[C@H]1COCCN1c1cc(CN2CCOCC2)nc(-c2ccc(NC(=O)NC3CC3)cc2)n1 [Example 49f, 3-cyclopropyl-1-[4-[4-[(3S)-3-methylmorpholin-4-yl]-6-(morpholin-4-ylmethyl)pyrimidin-2-yl]phenyl]urea]
4 | 860 nM | CC(C)S(=O)(=O)Cc1cc(N2CCOCC2)nc(-c2ccc(NC(=O)NCCN(C)C)cc2)n1 [Example 20n, 3-(2-dimethylaminoethyl)-1-[4-[4-morpholin-4-yl-6-(propan-2-ylsulfonylmethyl)pyrimidin-2-yl]phenyl]urea]
5 | 78 nM | CC(C)NC(=O)Nc1ccc(-c2nc(CS(C)(=O)=O)cc(N3CCOC[C@@H]3C)n2)cc1 [Example 1c, 3-[4-[4-[(3S)-3-methylmorpholin-4-yl]-6-(methylsulfonylmethyl)pyrimidin-2-yl]phenyl]-1-propan-2-yl-urea]
6 | 49 nM | CS(=O)(=O)Cc1cc(N2CCOCC2)nc(-c2ccc(NC(=O)NCCO)cc2)n1 [Example 45k, 3-(2-hydroxyethyl)-1-[4-[4-(methylsulfonylmethyl)-6-morpholin-4-yl-pyrimidin-2-yl]phenyl]urea]
7 | 600 nM | C[C@H]1COCCN1c1cc(CS(=O)(=O)CC(N)=O)nc(-c2ccc(NC(=O)NCc3cnn(C)c3)cc2)n1 [Example 53a]
8 | 81 nM | CC(C)S(=O)(=O)Cc1cc(N2CCOCC2)nc(-c2ccc(NC(=O)NC3CC3)cc2)n1 [Example 20m, 3-cyclopropyl-1-[4-[4-morpholin-4-yl-6-(propan-2-ylsulfonylmethyl)pyrimidin-2-yl]phenyl]urea]
9 | 82 nM | C[C@H]1COCCN1c1cc(CS(C)(=O)=O)nc(-c2ccc(NC(=O)NCc3cccnc3)cc2)n1 [Example 24a, 1-[4-[4-[(3S)-3-methylmorpholin-4-yl]-6-(methylsulfonylmethyl)pyrimidin-2-yl]phenyl]-3-(pyridin-3-ylmethyl)urea]
10 | 660 nM | CN(CCO)C(=O)Nc1ccc(-c2nc(CS(C)(=O)=O)cc(N3CCOCC3)n2)cc1 [Example 45, 1-(2-Hydroxyethyl)-1-methyl-3-[4-[4-(methylsulfonylmethyl)-6-morpholin-4-yl-pyrimidin-2-yl]phenyl]urea]
11 | 170 nM | CC(C)NC(=O)Nc1ccc(-c2nc(CS(C)(=O)=O)cc(N3CCOCC3)n2)cc1 [Example 7, 3-[4-[4-(Methylsulfonylmethyl)-6-morpholin-4-yl-pyrimidin-2-yl]phenyl]-1-propan-2-yl-urea]
12 | 350 nM | CC(C)NC(=O)Nc1ncc(-c2nc(CS(C)(=O)=O)cc(N3CCOC[C@@H]3C)n2)s1 [Example 46a, 1-[5-[4-[(3S)-3-methylmorpholin-4-yl]-6-(methylsulfonylmethyl)pyrimidin-2-yl]-1,3-thiazol-2-yl]-3-propan-2-yl-urea]
13 | 32 nM | CS(=O)(=O)Cc1cc(N2CCOCC2)nc(-c2ccc(NC(=O)NCCCO)cc2)n1 [Example 45q, 3-(3-hydroxypropyl)-1-[4-[4-(methylsulfonylmethyl)-6-morpholin-4-yl-pyrimidin-2-yl]phenyl]urea]
14 | 180 nM | C[C@H]1COCCN1c1cc(CN2CCCN(C)CC2)nc(-c2ccc(NC(=O)NC3CC3)cc2)n1 [Example 49h, 3-cyclopropyl-1-[4-[4-[(4-methyl-1,4-diazepan-1-yl)methyl]-6-[(3S)-3-methylmorpholin-4-yl]pyrimidin-2-yl]phenyl]urea]
15 | 2100 nM | COCCNC(=O)Nc1ccc(-c2nc(CS(=O)(=O)c3ccccc3)cc(N3CCOCC3)n2)cc1 [Example 20e, 3-[4-[4-(benzenesulfonylmethyl)-6-morpholin-4-yl-pyrimidin-2-yl]phenyl]-1-(2-methoxyethyl)urea]
16 | 480 nM | CN(C)CCNC(=O)Nc1ccc(-c2nc(N3CCOCC3)cc(C(C)(C)S(C)(=O)=O)n2)cc1 [Example 21c, 3-(2-dimethylaminoethyl)-1-[4-[4-(2-methylsulfonylpropan-2-yl)-6-morpholin-4-yl-pyrimidin-2-yl]phenyl]urea]

Row | IC50 | SMILES
17 | 66 nM | CNC(=O)Nc1ccc(-c2nc(CS(=O)(=O)C(C)C)cc(N3CCOC[C@@H]3C)n2)cc1 [Example 19d, 3-methyl-1-[4-[4-[(3S)-3-methylmorpholin-4-yl]-6-(propan-2-ylsulfonylmethyl)pyrimidin-2-yl]phenyl]urea]
18 | 63 nM | CCNC(=O)Nc1ccc(-c2nc(CO)cc(N3CCOC[C@@H]3C)n2)cc1 [Example 5, 1-Ethyl-3-[4-[4-(hydroxymethyl)-6-[(3S)-3-methylmorpholin-4-yl]pyrimidin-2-yl]phenyl]urea]
19 | 2600 nM | Cc1cc(C)cc(NC(=O)Nc2ccc(-c3nc(CS(C)(=O)=O)cc(N4CCOCC4)n3)cc2)c1 [Example 7d, 1-(3,5-dimethylphenyl)-3-[4-[4-(methylsulfonylmethyl)-6-morpholin-4-yl-pyrimidin-2-yl]phenyl]urea]
20 | 38 nM | C[C@H]1COCCN1c1cc(CS(C)(=O)=O)nc(-c2ccc(NC(=O)NCCc3c[nH]cn3)cc2)n1 [Example 24b, 3-[2-(1H-imidazol-4-yl)ethyl]-1-[4-[4-[(3S)-3-methylmorpholin-4-yl]-6-(methylsulfonylmethyl)pyrimidin-2-yl]phenyl]urea]
21 | 100 nM | CCNC(=O)Nc1ccc(-c2nc(CS(C)(=O)=O)cc(N3CCOC[C@@H]3C)n2)cc1OC [Example 3a, 1-ethyl-3-[2-methoxy-4-[4-[(3S)-3-methylmorpholin-4-yl]-6-(methylsulfonylmethyl)pyrimidin-2-yl]phenyl]urea]
22 | 100 nM | COc1ccc(NC(=O)Nc2ccc(-c3nc(N4CCOC[C@@H]4C)cc(C(C)(C)S(C)(=O)=O)n3)cc2)cn1 [Example 24x, 3-(6-methoxypyridin-3-yl)-1-[4-[4-[(3S)-3-methylmorpholin-4-yl]-6-(2-methylsulfonylpropan-2-yl)pyrimidin-2-yl]phenyl]urea]
23 | 130 nM | C[C@H]1COCCN1c1cc(CS(=O)(=O)c2nccs2)nc(-c2ccc(NC(=O)NC3CC3)cc2)n1 [Example 43e, 3-cyclopropyl-1-[4-[4-[(3S)-3-methylmorpholin-4-yl]-6-(1,3-thiazol-2-ylsulfonylmethyl)pyrimidin-2-yl]phenyl]urea]
24 | 1000 nM | C[C@H]1COCCN1c1cc(CS(C)(=O)=O)nc(-c2ccc(NC(=O)N3CCC3)c(F)c2)n1 [Example 4a, N-[2-Fluoro-4-[4-[(3S)-3-methylmorpholin-4-yl]-6-(methylsulfonylmethyl)pyrimidin-2-yl]phenyl]azetidine-1-carboxamide]
25 | 3800 nM | CS(=O)(=O)Cc1cc(N2CCOCC2)nc(-c2ccc(NC(=O)NCc3ccco3)cc2)n1 [Example 7p, 3-(2-furylmethyl)-1-[4-[4-(methylsulfonylmethyl)-6-morpholin-4-yl-pyrimidin-2-yl]phenyl]urea]
26 | 1300 nM | CS(=O)(=O)Cc1cc(N2CCOCC2)nc(-c2ccc(NC(=O)Nc3ccc(F)c(Cl)c3)cc2)n1 [Example 7g, 3-(3-chloro-4-fluoro-phenyl)-1-[4-[4-(methylsulfonylmethyl)-6-morpholin-4-yl-pyrimidin-2-yl]phenyl]urea]
27 | 290 nM | C[C@H]1COCCN1c1cc(CS(C)(=O)=O)nc(-c2ccc(NC(=O)N(C)C)cc2)n1 [Example 2b, 1,1-dimethyl-3-[4-[4-[(3S)-3-methylmorpholin-4-yl]-6-(methylsulfonylmethyl)pyrimidin-2-yl]phenyl]urea]
28 | 91 nM | C[C@H]1COCCN1c1cc(CS(C)(=O)=O)nc(-c2ccc(NC(=O)Nc3cnn(C)c3)cc2)n1 [Example 22f, 1-[4-[4-[(3S)-3-methylmorpholin-4-yl]-6-(methylsulfonylmethyl)pyrimidin-2-yl]phenyl]-3-(1-methylpyrazol-4-yl)urea]
29 | 510 nM | C[C@H]1COCCN1c1cc(C(C)(C)S(C)(=O)=O)nc(-c2cc(F)c(NC(=O)NC3CC3)c(F)c2)n1 [Example 24ad, 3-cyclopropyl-1-[2,6-difluoro-4-[4-[(3S)-3-methylmorpholin-4-yl]-6-(2-methylsulfonylpropan-2-yl)pyrimidin-2-yl]phenyl]urea]
30 | 63 nM | C[C@H]1COCCN1c1cc(CS(C)(=O)=O)nc(-c2cnc(NC(=O)Nc3cnn(C)c3)s2)n1 [Example 46h, 1-[5-[4-[(3S)-3-methylmorpholin-4-yl]-6-(methylsulfonylmethyl)pyrimidin-2-yl]-1,3-thiazol-2-yl]-3-(1-methylpyrazol-4-yl)urea]
31 | 4.7 nM | CNC(=O)Nc1ccc(-c2nc(CS(=O)(=O)c3ccccc3)cc(N3CCOC[C@@H]3C)n2)cc1 [Example 19a, 1-[4-[4-(benzenesulfonylmethyl)-6-[(3S)-3-methylmorpholin-4-yl]pyrimidin-2-yl]phenyl]-3-methyl-urea]
32 | 560 nM | C[C@H]1COCCN1c1cc(CS(=O)(=O)C2CCNC2=O)nc(-c2ccc(NC(=O)Nc3ccccc3)cc2)n1 (stereo partly drawn) [Example 29, 1-[4-[4-[(3S)-3-Methylmorpholin-4-yl]-6-[(2-oxopyrrolidin-3-yl)sulfonylmethyl]pyrimidin-2-yl]phenyl]-3-phenyl-urea]
